Measured values from patent US8552208B2, “Analogs of tetramic acid” (University of Tennesseee Research Foundation, priority 2007, dated 2013).
In brackets after ≈: the same amount, converted by molar mass. Where two headings read alike, the source gives them in different places.

What was measured:
[1] = system: Mycobacterium tuberculosis H37 Rv; test: Antibacterial activity assay (MIC, broth dilution); format: cell-based; details: H37RV, 168 h; Mycobacterium tuberculosis H37 Rv; […]; read-out: MIC, TB
[2] = system: Bacillus anthracis Sterne 34F2; test: microbe, parasite or virus in culture; format: cell-based; details: STERNE34F2, read-out: MIC, BA
[3] = system: Bacillus subtilis ATCC 23857; test: Antibacterial activity assay (MIC, broth dilution); format: cell-based; details: ATCC23857; Bacillus subtilis ATCC 23857; read-out: MIC, BS
[4] = system: Streptococcus pneumoniae DAW30EC; test: Antibacterial activity assay (MIC, broth dilution); format: cell-based; details: Streptococcus pneumoniae DAW30EC; read-out: MIC, SPn
[5] = system: Enterococcus faecalis ATCC 33186; test: Antibacterial activity assay (MIC, broth dilution); format: cell-based; details: ATCC33186; Enterococcus faecalis ATCC 33186; read-out: MIC, EF
[6] = system: Methicillin Resistant Staphylococcus aureus ATCC 33591; test: Antibacterial activity assay (MIC, broth dilution); format: cell-based; details: ATCC 33591 / MRSA, read-out: MIC, MRSA
[7] = system: Methicillin sensitive Staphylococcus aureus 8325 ATCC 35556; test: Antibacterial activity assay (MIC, broth dilution); format: cell-based; details: ATCC 35556 / MSSA; Methicillin sensitive Staphylococcus aureus 8325 ATCC 35556; read-out: MIC, MSSA
[8] = system: Propionibacterium acnes ATCC 6919; test: Antibacterial activity assay (MIC, broth dilution); format: cell-based; details: Cutibacterium acnes, ATCC6919; Propionibacterium acnes ATCC 6919; read-out: MIC, PA
[9] = system: Streptococcus pyogenes ATCC 700294; test: Antibacterial activity assay (MIC, broth dilution); format: cell-based; details: ATCC700294; Streptococcus pyogenes ATCC 700294; read-out: MIC, SP
[10] = Cytotoxicity assay (MTT); format: cell-based, monkey; details: monkey, Vero cells, 72 hours, MTT, read-out: IC50 (Cytotoxicity): Concentration which reduces viability of Vero kidney cells by 50%
Procedure: (§1) Cytotoxicity assays of drugs of Formula I of Example 3 and of Formula II of Example 5 were performed using the Vero monkey kidney cell line (ATCC, CCL-81). Vero cells were grown in tissue culture flasks in Dulbecco's Modified Eagle's Medium (ATCC) supplemented with 10% fetal bovine serum and maintained in a humidified incubator (37° C., 5% CO2). Cells were removed with a cell scraper, collected by centrifugation and then suspended in fresh medium at ˜10^6 cells/mL. The cell suspensions were dispensed into 96-well microtiter plates (100 μl/well) and incubated for 18 hours at 37° C. before being used for cytotoxicity assays. Test compounds were subsequently added at concentrations ranging from 400-0.024 μg/mL and 0.1% vol/vol of Triton-X 100, which causes 100% death of cells, was included as a control. After incubating cells and compounds for 72 hours in humid air (37° C., 5% CO2) the cytopathic effects of compounds were determined using the MTT Cell Proliferation Assay (ATCC, Cat No. 30-1010K). The MTT solution reagent (10 μl) was added to each well and plates incubated at 37° C. until sufficient purple color development occurred in cells (3 hours). After detergent cell lysis, the purple formazan product was measured at 570 nm in a Synergy HT Biotek microplate reader. IC50 data was obtained from dose response curves plotted from percentage activity versus log10 concentration using Graphpad prism 5.

[11] = system: Vero monkey kidney cell line (ATCC, CCL-81); test: Cytotoxicity assay (MTT); format: cell-based
Procedure: as §1

[12] = IC50 divided by MIC against S. aureus 8325
[13] = Vero monkey kidney cells (ATCC CCL-81)

SMILES | MIC [1] [µg/mL] | MIC [2] [µg/mL] | MIC [3] [µg/mL] | MIC [4] [µg/mL] | MIC [5] [µg/mL] | MIC [6] [µg/mL] | MIC [7] [µg/mL] | MIC [8] [µg/mL] | MIC [9] [µg/mL] | IC50 at 72 h [10] [µg/mL] | IC50/MIC = Selectivity (therapeutic) index [11, 12] | IC50 at 72 h [10, 13] [µg/mL] | IC50/MIC = Selectivity (therapeutic) index ([11]; IC50 divided by MIC against E. faecalis (12p only))
CCC(C)[C@H]1C(O)=C(C#N)C(=O)N1Cc1ccccc1 (stereo partly drawn) [Compound 12a, (S)-1-benzyl-5-sec-butyl-4-hydroxy-2-oxo-2,5-dihydro-1H-pyrrole-3-carbonitrile] | > 200 | > 200 | > 200 | > 200 | > 200 | > 200 | > 200 | > 200 | > 200 |  |  |  | 
COc1cccc(CN2C(=O)/C(=C(/C)O)C(=O)[C@@H]2CC(C)C)c1 [Compound 13d, (S,Z)-3-(1-hydroxyethylidene)-5-isobutyl-1-(3-methoxybenzyl)pyrrolidine-2,4-dione] | 100 (≈ 315 µM) | 25 (≈ 78.8 µM) | 25 (≈ 78.8 µM) | 50 (≈ 158 µM) | 100 (≈ 315 µM) | 25 (≈ 78.8 µM) | 12.5 (≈ 39.4 µM) | 12.5 (≈ 39.4 µM) | 200 (≈ 630 µM) | 40 | 3.2 |  | 
CC(C)C[C@@H]1C(O)=C(C#N)C(=O)N1Cc1ccc(F)cc1 [Compound 12f, (R)-1-(4-fluorobenzyl)-4-hydroxy-5-isobutyl-2-oxo-2,5-dihydro-1H-pyrrole-3-carbonitrile] | > 200 | > 200 | > 200 | > 200 | > 200 | > 200 | > 200 | > 200 | > 200 |  |  |  | 
COc1cccc(CN2C(=O)C(C#N)=C(O)[C@@H]2CC(C)C)c1 [Compound 12d, (S)-4-hydroxy-5-isobutyl-1-(3-methoxybenzyl)-2-oxo-2,5-dihydro-1H-pyrrole-3-carbonitrile] | > 200 | > 200 | > 200 | > 200 | > 200 | > 200 | > 200 | > 200 | > 200 |  |  |  | 
N#CC1=C(O)[C@H](Cc2ccccc2)N(Cc2ccccc2)C1=O [Compound 12c, (S)-1,5-dibenzyl-4-hydroxy-2-oxo-2,5-dihydro-1H-pyrrole-3-carbonitrile] | > 200 | > 200 | > 200 | > 200 | > 200 | > 200 | > 200 | > 200 | > 200 |  |  |  | 
C/C(O)=C1\C(=O)[C@@H](CC(C)C)N(Cc2ccc(F)cc2)C1=O [Compound 13f, (R,Z)-1-(4-fluorobenzyl)-3-(1-hydroxyethylidene)-5-isobutylpyrrolidine-2,4-dione] | 100 (≈ 327 µM) | 12.5 (≈ 40.9 µM) | 12.5 (≈ 40.9 µM) | 25 (≈ 81.9 µM) | 50 (≈ 164 µM) | 12.5 (≈ 40.9 µM) | 12.5 (≈ 40.9 µM) | 12.5 (≈ 40.9 µM) | 100 (≈ 327 µM) | 35.3 | 2.8 |  | 
CCCCCCCCCCN1C(=O)/C(=C(/C)O)C(=O)[C@H]1CC(C)C [Compound 13o, (R,Z)-1-decyl-3-(1-hydroxyethylidene)-5-isobutylpyrrolidine-2,4-dione] | 25 (≈ 74.1 µM) | 0.8 (≈ 2.37 µM) | 0.8 (≈ 2.37 µM) | 6.25 (≈ 18.5 µM) | 1.6 (≈ 4.74 µM) | 0.8 (≈ 2.37 µM) | 0.4 (≈ 1.19 µM) | 0.8 (≈ 2.37 µM) | 50 (≈ 148 µM) |  | 15.8 | 6.3 | 
CCC(C)[C@H]1C(=O)/C(=C(\C)O)C(=O)N1Cc1ccccc1 (stereo partly drawn) [Compound 13a, (S,Z)-1-benzyl-5-sec-butyl-3-(1-hydroxyethylidene)pyrrolidine-2,4-dione] | 50 (≈ 174 µM) | 3.12 (≈ 10.9 µM) | 25 (≈ 87 µM) | 50 (≈ 174 µM) | 6.25 (≈ 21.7 µM) | 6.25 (≈ 21.7 µM) | 6.25 (≈ 21.7 µM) | 6.25 (≈ 21.7 µM) | > 200 | 26.3 | 4.2 |  | 
C/C(O)=C1\C(=O)[C@@H](Cc2ccccc2)N(Cc2ccccc2)C1=O [Compound 13g, (R,Z)-1,5-dibenzyl-3-(1-hydroxyethylidene)pyrrolidine-2,4-dione] | > 200 | 25 (≈ 77.8 µM) | 25 (≈ 77.8 µM) | 50 (≈ 156 µM) | 100 (≈ 311 µM) | 25 (≈ 77.8 µM) | 25 (≈ 77.8 µM) | 25 (≈ 77.8 µM) | 200 (≈ 622 µM) |  | 3.2 | 80.6 | 
CCCCCCCCCCN1C(=O)C(C#N)=C(O)[C@@H]1CC(C)C [Compound 12b, (S)-1-decyl-4-hydroxy-5-isobutyl-2-oxo-2,5-dihydro-1H-pyrrole-3-carbonitrile] | 3.12 (≈ 9.74 µM) | 25 (≈ 78 µM) | 50 (≈ 156 µM) | 100 (≈ 312 µM) | 25 (≈ 78 µM) | 25 (≈ 78 µM) | 25 (≈ 78 µM) | 12.5 (≈ 39 µM) | > 200 | 152 | 6.1 |  | 
N#CC1=C(O)[C@@H](Cc2ccccc2)N(Cc2ccccc2)C1=O [Compound 12g, (R)-1,5-dibenzyl-4-hydroxy-2-oxo-2,5-dihydro-1H-pyrrole-3-carbonitrile] | > 200 | > 200 | > 200 | > 200 | > 200 | > 200 | > 200 | > 200 | > 200 |  |  |  | 
CC(C)C[C@H]1C(O)=C(C#N)C(=O)N1Cc1ccc(F)cc1 [Compound 12e, (S)-1-(4-fluorobenzyl)-4-hydroxy-5-isobutyl-2-oxo-2,5-dihydro-1H-pyrrole-3-carbonitrile] | > 200 | > 200 | > 200 | > 200 | > 200 | > 200 | > 200 | > 200 | > 200 |  |  |  | 
C/C(O)=C1\C(=O)[C@H](CC(C)C)N(Cc2ccc(F)cc2)C1=O [Compound 13e, (S,Z)-1-(4-fluorobenzyl)-3-(1-hydroxyethylidene)-5-isobutylpyrrolidine-2,4-dione] | 100 (≈ 327 µM) | 12.5 (≈ 40.9 µM) | 25 (≈ 81.9 µM) | 50 (≈ 164 µM) | 50 (≈ 164 µM) | 25 (≈ 81.9 µM) | 12.5 (≈ 40.9 µM) | 6.25 (≈ 20.5 µM) | 100 (≈ 327 µM) | 27.8 | 2.2 |  | 
C/C(O)=C1\C(=O)[C@H](Cc2ccccc2)N(Cc2ccccc2)C1=O [Compound 13c, (S,Z)-1,5-dibenzyl-3-(1-hydroxyethylidene)pyrrolidine-2,4-dione] | > 200 | 25 (≈ 77.8 µM) | 25 (≈ 77.8 µM) | 100 (≈ 311 µM) | 100 (≈ 311 µM) | 25 (≈ 77.8 µM) | 12.5 (≈ 38.9 µM) | 12.5 (≈ 38.9 µM) | > 200 |  | 6.1 | 75.7 | 
CCN1C(=O)/C(=C(/C)O)C(=O)[C@@H]1Cc1ccccc1 [Compound 13h, (S,Z)-5-benzyl-1-ethyl-3-(1-hydroxyethylidene)pyrrolidine-2,4-dione] | > 200 | 50 (≈ 193 µM) | > 200 | > 200 | > 200 | > 200 | 200 (≈ 771 µM) | 100 (≈ 386 µM) | > 200 |  |  |  | 
CCC(C)[C@H]1C(O)=C(C#N)C(=O)N1Cc1ccco1 (stereo partly drawn) [Compound 12p, (S)-5-sec-butyl-1-(furan-2-ylmethyl)-4-hydroxy-2-oxo-2,5-dihydro-1H-pyrrole-3-carbonitrile] | > 200 | 3.12 (≈ 12 µM) | 25 (≈ 96 µM) | 50 (≈ 192 µM) | 3.12 (≈ 12 µM) | > 200 | > 200 | 12.5 (≈ 48 µM) | > 200 | 6400 |  |  | 2049.7
